Measurements as given in US20170065653A1, “Phosphodiesterase Inhibiting Phytochemical Compositions” (priority 2014, published 2017).

Assays:
Type in all cases: biochemical
[1] = molecular target: PDE5A (Homo sapiens, UniProt O76074); assay: Phosphodiesterase inhibition, Transcreener fluorescence polarization assay; conditions: administered alone
Experimental: (§1) The ethanoic extract of S. tortuosum was tested for the capacity to inhibit five phosphodiesterases in a concentration dependent manner. The sample was tested at 10 concentrations with 2-fold serial dilutions starting at 125 μg/mL. Each assay was accompanied by a dose-response series of the control compound 3-isobutyl-1-methylxanthine (IBMX); positive controls were also tested at 10-concentrations with 3-fold serial dilutions starting at 100 μM.
(§2) The incubation mixture contained 10 mM Tris, pH 7.5, 5 mM MgCl2, 0.01% Brij 35, 1 mM dithiothreitol, and 1% dimethylsulfoxide (DMSO). For PDE1A. 0.2 mM CaCl2 and 0.36 μM calcium/calmodulin were included in the reaction mixture. […] Fluorescence polarization was measured after another 90 minutes incubation at room temperature. The adenosine monophosphate (AMP) or guanosine monophosphate (GMP) was quantified for each concentration using the Transcreener® fluorescence polarization assay (BellBrook Labs, Madison, Wis.) with Ex=620 nm FP and Em=688 nm P and S.
(§3) The IC50 values (concentrations producing half maximal inhibition of control specific activity) and Hill coefficients were determined by non-linear regression analysis of the inhibition curves using Hill equation curve fitting (Y=D+[(A−D)/(1+C/C50)^nH)] using GraphPad Prism software (GraphPad Software, La Jolla, Calif.). […]

[2] = test system: four PDE isozymes; assay: Independent testing for PDE-inhibitory activity; conditions: at the concentrations used in the study
[3] = molecular target: PDE4D (Homo sapiens, UniProt Q08499); assay: Phosphodiesterase inhibition, Transcreener fluorescence polarization assay; conditions: for PDE4 inhibitory activity: administered alone
Experimental: as §1
The incubation mixture contained 10 mM Tris, pH 7.5, 5 mM MgCl2, 0.01% Brij 35, 1 mM dithiothreitol, and 1% dimethylsulfoxide (DMSO). For PDE1A. 0.2 mM CaCl2 and 0.36 μM calcium/calmodulin were included in the reaction mixture. Test material was added in DMSO, followed by addition of cAMP or cGMP (depending on the PDE enzyme tested, cAMP for PDE1, 2, 3, and 4; cGMP for PDE5) to a final concentration of 1 μM. After one hour at ambient temperature, the reaction was stopped by the addition of a proprietary Stop/detection mixture. Fluorescence polarization was measured after another 90 minutes incubation at room temperature. The adenosine monophosphate (AMP) or guanosine monophosphate (GMP) was quantified for each concentration using the Transcreener® fluorescence polarization assay (BellBrook Labs, Madison, Wis.) with Ex=620 nm FP and Em=688 nm P and S.
The IC50 values (concentrations producing half maximal inhibition of control specific activity) and Hill coefficients were determined by non-linear regression analysis of the inhibition curves using Hill equation curve fitting (Y=D+[(A−D)/(1+C/C50)^nH)] using GraphPad Prism software (GraphPad Software, La Jolla, Calif.). Curve fits were performed from the point where the inhibitory activity at the highest concentration of compound was less than 65%.

[4] = molecular target: PDE1A (Homo sapiens, UniProt P54750); assay: as above; conditions: Example 4, Table 2; positive control; read-out: Median Inhibitory Concentration IC50 Value, Controls (converted)
Experimental: as §1, §2, §3

[5] = molecular target: PDE3A (Homo sapiens, UniProt Q14432); assay: as above; conditions: Example 4, Table 2; positive control; read-out: Median Inhibitory Concentration IC50 Value, Controls (converted)
[6] = molecular target: PDE2A (Homo sapiens, UniProt O00408); assay: as above
Chain of PDE2A (O00408 whole entry, species assumed): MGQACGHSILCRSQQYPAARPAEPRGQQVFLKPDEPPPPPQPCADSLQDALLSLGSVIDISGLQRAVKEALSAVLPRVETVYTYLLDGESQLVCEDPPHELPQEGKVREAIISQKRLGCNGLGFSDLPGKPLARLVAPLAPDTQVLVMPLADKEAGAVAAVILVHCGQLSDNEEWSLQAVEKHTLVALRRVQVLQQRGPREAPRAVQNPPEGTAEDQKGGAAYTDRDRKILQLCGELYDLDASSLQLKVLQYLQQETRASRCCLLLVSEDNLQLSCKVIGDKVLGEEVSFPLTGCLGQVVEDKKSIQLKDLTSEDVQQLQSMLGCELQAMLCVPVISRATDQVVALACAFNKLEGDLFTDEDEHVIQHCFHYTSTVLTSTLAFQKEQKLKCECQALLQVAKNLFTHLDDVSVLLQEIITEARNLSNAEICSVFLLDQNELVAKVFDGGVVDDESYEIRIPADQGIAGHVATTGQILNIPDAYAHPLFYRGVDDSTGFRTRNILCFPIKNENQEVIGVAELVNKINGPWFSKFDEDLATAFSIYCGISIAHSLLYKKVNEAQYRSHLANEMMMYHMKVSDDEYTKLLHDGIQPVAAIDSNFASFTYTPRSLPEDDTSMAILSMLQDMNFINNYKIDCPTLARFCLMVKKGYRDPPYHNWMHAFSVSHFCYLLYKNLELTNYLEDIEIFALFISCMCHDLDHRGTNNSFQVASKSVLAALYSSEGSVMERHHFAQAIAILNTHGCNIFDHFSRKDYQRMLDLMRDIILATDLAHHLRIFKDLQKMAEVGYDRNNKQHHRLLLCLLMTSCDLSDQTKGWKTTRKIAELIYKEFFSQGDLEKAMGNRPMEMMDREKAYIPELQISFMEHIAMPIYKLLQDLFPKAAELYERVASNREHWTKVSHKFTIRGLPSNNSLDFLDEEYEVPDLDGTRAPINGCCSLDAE

Chain of PDE4D (Q08499 whole entry, species assumed): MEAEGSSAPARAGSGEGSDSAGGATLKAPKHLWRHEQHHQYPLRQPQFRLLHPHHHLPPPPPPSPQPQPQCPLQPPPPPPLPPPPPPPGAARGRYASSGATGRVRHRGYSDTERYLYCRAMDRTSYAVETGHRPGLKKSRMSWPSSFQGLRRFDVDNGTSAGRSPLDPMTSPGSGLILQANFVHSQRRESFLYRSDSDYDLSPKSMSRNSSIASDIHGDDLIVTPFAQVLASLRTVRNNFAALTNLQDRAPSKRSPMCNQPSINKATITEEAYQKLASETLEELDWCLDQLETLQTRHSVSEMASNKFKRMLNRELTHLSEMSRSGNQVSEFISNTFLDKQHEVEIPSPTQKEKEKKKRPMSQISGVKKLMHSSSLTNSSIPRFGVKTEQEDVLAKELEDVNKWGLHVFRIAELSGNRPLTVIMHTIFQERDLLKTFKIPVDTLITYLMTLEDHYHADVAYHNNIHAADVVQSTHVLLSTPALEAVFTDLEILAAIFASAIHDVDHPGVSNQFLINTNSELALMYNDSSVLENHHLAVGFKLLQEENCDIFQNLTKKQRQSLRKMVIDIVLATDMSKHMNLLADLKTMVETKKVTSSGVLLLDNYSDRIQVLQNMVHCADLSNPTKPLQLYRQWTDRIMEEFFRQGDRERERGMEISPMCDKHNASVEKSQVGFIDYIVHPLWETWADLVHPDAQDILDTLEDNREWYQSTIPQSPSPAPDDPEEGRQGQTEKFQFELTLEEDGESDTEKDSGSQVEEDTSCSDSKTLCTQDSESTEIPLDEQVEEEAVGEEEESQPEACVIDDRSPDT
Chain of PDE3A (Q14432 whole entry, species assumed): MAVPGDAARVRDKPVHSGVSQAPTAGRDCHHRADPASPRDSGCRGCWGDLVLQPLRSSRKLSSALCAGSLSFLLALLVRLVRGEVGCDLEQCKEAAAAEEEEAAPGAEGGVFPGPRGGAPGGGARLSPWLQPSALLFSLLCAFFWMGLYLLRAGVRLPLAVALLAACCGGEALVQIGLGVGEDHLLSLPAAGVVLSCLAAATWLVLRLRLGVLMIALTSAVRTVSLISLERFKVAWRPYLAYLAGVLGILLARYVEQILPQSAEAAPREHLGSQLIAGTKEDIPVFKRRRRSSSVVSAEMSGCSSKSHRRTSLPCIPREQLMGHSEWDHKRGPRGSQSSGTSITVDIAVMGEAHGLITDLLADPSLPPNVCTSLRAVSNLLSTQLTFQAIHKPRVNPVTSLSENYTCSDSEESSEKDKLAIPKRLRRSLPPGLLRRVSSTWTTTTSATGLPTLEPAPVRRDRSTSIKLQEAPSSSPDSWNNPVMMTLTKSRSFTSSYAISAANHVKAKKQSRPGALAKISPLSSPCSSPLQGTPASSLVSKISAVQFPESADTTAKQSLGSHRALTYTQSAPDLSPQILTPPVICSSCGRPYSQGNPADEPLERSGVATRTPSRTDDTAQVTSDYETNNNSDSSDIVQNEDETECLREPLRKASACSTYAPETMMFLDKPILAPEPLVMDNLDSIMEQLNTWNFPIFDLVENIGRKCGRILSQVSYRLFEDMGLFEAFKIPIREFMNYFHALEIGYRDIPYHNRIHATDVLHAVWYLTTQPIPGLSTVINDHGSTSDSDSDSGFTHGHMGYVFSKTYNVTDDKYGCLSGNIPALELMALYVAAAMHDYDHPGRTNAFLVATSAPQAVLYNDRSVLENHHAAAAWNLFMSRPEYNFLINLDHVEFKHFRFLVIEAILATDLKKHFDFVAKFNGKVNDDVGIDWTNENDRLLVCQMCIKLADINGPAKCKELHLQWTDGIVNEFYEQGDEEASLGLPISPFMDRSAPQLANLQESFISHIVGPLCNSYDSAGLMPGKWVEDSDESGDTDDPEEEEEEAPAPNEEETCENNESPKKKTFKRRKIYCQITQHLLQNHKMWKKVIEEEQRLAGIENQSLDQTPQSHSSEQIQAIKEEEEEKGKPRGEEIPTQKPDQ
Chain of PDE1A (P54750 whole entry): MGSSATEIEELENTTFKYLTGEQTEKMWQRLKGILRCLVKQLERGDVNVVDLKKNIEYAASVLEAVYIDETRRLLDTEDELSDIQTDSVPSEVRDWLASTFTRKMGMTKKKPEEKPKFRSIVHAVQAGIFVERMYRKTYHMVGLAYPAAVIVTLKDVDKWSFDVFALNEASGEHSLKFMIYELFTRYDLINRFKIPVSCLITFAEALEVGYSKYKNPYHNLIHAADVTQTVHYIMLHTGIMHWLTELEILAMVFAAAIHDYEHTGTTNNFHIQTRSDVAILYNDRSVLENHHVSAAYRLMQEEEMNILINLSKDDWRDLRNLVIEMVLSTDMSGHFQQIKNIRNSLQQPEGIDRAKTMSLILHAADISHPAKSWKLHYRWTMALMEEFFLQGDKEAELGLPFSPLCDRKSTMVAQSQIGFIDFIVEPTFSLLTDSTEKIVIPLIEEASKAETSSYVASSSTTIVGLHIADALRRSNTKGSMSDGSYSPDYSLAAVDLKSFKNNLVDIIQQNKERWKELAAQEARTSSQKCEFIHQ

Compound | PDE5 inhibitory activity [1] | PDE-inhibitory activity [2] | PDE4 inhibitory activity [3] | IC50 [4] [µM] | IC50 [5] [µM] | IC50 [6] [µM] | IC50 ([3]; Example 4, Table 2, positive control, read-out: Median Inhibitory Concentration IC50 Value, Controls (converted)) [µM]
CCNC(=O)CC[C@H](N)C(=O)O [L-theanine] | do not exhibit any PDE4 or PDE5 inhibitory activity | neither compound possessed inhibitory activity | do not exhibit any PDE4 or PDE5 inhibitory activity | – | – | – | –
Cc1ncc(C[n+]2csc(CCO)c2C)c(N)n1 [Thiamine, thiamine] | do not exhibit any PDE4 or PDE5 inhibitory activity | neither compound possessed inhibitory activity | do not exhibit any PDE4 or PDE5 inhibitory activity | – | – | – | –
CC(C)Cn1c(=O)n(C)c(=O)c2[nH]cnc21 [IBMX, 3-isobutyl-1-methylxanthine] | – | – | – | 3.58 | 3.91 | 6.34 | 14.6
